Test results taken from PubChem BioAssay (NCI).
“And” between values parts separate entries of the source, which are not always exact repeats. Identical values can stand only once.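 Method: 48-hour compound exposure of cells in 96-well plates, five concentrations, linear interpolation of endpoints. At the GI50, growth is halved. TGI is the concentration that stops growth completely.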

Legend:
Assay in all cases: NCI anticancer screen, dose series, 48 h
[1] = tested on: COLO 205 colon
[2] = tested on: UACC-62 melanoma
[3] = tested on: HOP-92 NSCLC
[4] = tested on: SNB-19 CNS
[5] = tested on: NCI-H23 lung
[6] = tested on: OVCAR-5 ovarian
[7] = tested on: EKVX NSCLC
[8] = tested on: HOP-62 NSCLC
[9] = tested on: M14 melanoma
[10] = tested on: NCI/ADR-RES ovarian

SMILES	TGI [1] [µM]	TGI [2]	TGI [3]	TGI [4]	TGI [5]	TGI [6]	TGI [7] [µM]	TGI [8] [µM]	TGI [9]	GI50 [2] [µM]	GI50 [3]	GI50 [5]	GI50 [6] [µM]	GI50 [7] [µM]	GI50 [10]	TGI [10]	GI50 [9] [µM]	GI50 [1] [µM]	GI50 [4]	GI50 [8] [µM]
O=C(CCc1ccccc1)On1nnc2ccccc2c1=O	> 100	> 100 µM	> 100 µM	> 100 µM	> 100 µM	> 100 µM	> 100	> 100	> 100 µM	–	–	–	–	–	–	–	–	–	–	–
COc1ccc(OC)c(-c2cc(-c3ccccc3)nn2-c2ccc(S(N)(=O)=O)cc2)c1	–	24.7 µM	50.1 µM	–	30.2 µM	28.8 µM	39.1	–	16.6 µM	12.1	15.5 µM	15.8 µM	15	18.1	16.2 µM	31.8 µM	5.38	–	–	–
O=C1/C(=C/c2ccc([N+](=O)[O-])s2)Oc2ccccc21	2.66	1.94 µM	2.29 µM	2.79 µM	3.19 µM	3.53 µM	–	–	3.57 µM	0.667	0.557 µM	1.31 µM	1.78	–	1.74 µM	9.25 µM	1.17	1.26	1.26 µM	–
CCN(CC)CCCCCOc1cc(O)c2c(=O)cc(-c3ccccc3)oc2c1	5.02	3.15 µM	–	21.3 µM	–	6.97 µM	23.6	9.71	3.1 µM	1.74	–	–	2.37	6.93	3.06 µM	11.6 µM	1.71	2.13	6.76 µM	2.43
CN(/N=C/c1ccnc2ccccc12)c1ccc([N+](=O)[O-])cc1[N+](=O)[O-]	> 100	> 100 µM	> 100 µM	> 100 µM	> 100 µM	> 100 µM	> 100	89.1	> 100 µM	–	–	–	–	–	–	–	–	–	–	–
CN1CCN(Cc2ccc(NC(=O)c3[nH]ncc3Nc3ncnc4sccc34)cc2)CC1	–	> 100 µM	–	> 100 µM	–	> 100 µM	3.53	> 100	–	0.915	–	–	0.508	0.425	1.07 µM	> 100 µM	–	–	0.335 µM	0.437
Cc1cccc2c1Oc1cc(Cl)ccc1C2NC(=O)CN(C)C (centres undefined)	> 100	70 µM	–	> 100 µM	> 100 µM	> 100 µM	> 100	> 100	51.8 µM	–	–	–	–	–	–	–	–	–	–	–
Cc1[nH]nc2c1N=C(c1ccccc1F)c1cc(C#N)ccc1N2	5.34	7.37 µM	8.87 µM	13.9 µM	14.2 µM	18.8 µM	–	8.85	–	3.04	0.672 µM	3.74 µM	7.12	–	4.72 µM	> 25 µM	–	0.134	4.16 µM	0.899
Oc1ccc(Br)cc1/C=N/NC(=S)NC12CC3CC(CC(C3)C1)C2	11.1	7.83 µM	6.58 µM	12.4 µM	–	4.78 µM	–	3.32	5.84 µM	2.37	2.35 µM	–	1.89	–	2.71 µM	7.89 µM	1.86	3.44	2.87 µM	1.52
O=C(O)c1ccc(N=Nc2cc(S(=O)(=O)O)c3cccnc3c2O)cc1	> 100	–	> 100 µM	> 100 µM	> 100 µM	> 100 µM	> 100	> 100	–	–	–	–	–	–	–	–	–	–	–	–
CC1=Nc2c([nH]c(=S)[nH]c2=O)NC(c2ccc(Cl)c(Cl)c2)C1 (centres undefined)	32.7	> 63.7 µM	> 100 µM	> 59.8 µM	40.2 µM	> 100 µM	> 68.3	> 100	31.3 µM	–	–	–	–	–	–	–	–	–	–	–
C[C@H]1COC2(c3ccccc3)CCC(=O)N12 (some centres undefined)	> 100	> 100 µM	> 100 µM	> 100 µM	> 100 µM	> 100 µM	> 100	> 100	–	–	–	–	–	–	–	–	–	–	–	–
CC(C)c1cc(CNc2nc(Nc3cc(C4CC4)[nH]n3)cc(N3CCN(C)CC3)n2)on1	–	> 10 µM and 2.35 µM	0.821 µM and 0.182 µM	> 10 µM and 23.3 µM	> 10 µM and 3.37 µM	> 10 µM and 3.91 µM	> 10	–	> 10 µM and 2.51 µM	–	0.16 µM and 0.0273 µM	1.54 µM and 0.173 µM	–	0.587	> 10 µM and 6.84 µM	> 10 µM and 25.4 µM	–	–	4.59 µM and 0.471 µM	–
CC(=O)OCC(OC(C)=O)C(OC(C)=O)C(OC(C)=O)C(=O)CNn1c(-c2ccccc2)nc2ccc(Br)cc2c1=O (centres undefined)	> 100	> 100 µM	–	> 100 µM	> 100 µM	> 100 µM	> 100	> 100	> 100 µM	–	–	–	–	–	–	–	–	–	–	–
OCC(O)COc1c(Cl)ccc(Cl)c1Cl (centres undefined)	> 100	> 100 µM	> 100 µM	> 100 µM	> 100 µM	> 100 µM	> 100	> 100	> 100 µM	–	–	–	–	–	–	–	–	–	–	–
CN(C)c1nc(N(C)C)n2nc(-c3ccccc3[N+](=O)[O-])nc2n1	> 100	> 100 µM	> 100 µM	> 100 µM	> 100 µM	> 100 µM	> 100	> 100	> 100 µM	–	–	–	–	–	–	–	–	–	–	–
NS(=O)(=O)c1ccc(NC(=O)CC(=O)Nc2ccc(S(N)(=O)=O)cc2)cc1	> 100	> 100 µM	> 100 µM	> 100 µM	> 100 µM	> 100 µM	> 100	> 100	> 100 µM	–	–	–	–	–	–	–	–	–	–	–
O=C1OC(c2ccccc2)=N/C1=C\c1c(O)cc(O)cc1O	> 100	> 100 µM	> 100 µM	> 100 µM	> 100 µM	> 100 µM	> 100	–	> 100 µM	–	–	–	–	–	–	–	–	–	–	–
CCOC(=O)C1=C(NC(C)(C)C)OCC1=O	> 100	> 100 µM	> 100 µM	> 100 µM	> 100 µM	> 100 µM	–	> 100	> 100 µM	–	–	–	–	–	–	–	–	–	–	–
